Results reported in PMC12621189, “Optimization of Selective and CNS Penetrant Alkyne-Based TREK Inhibitors: The Discovery and Characterization of ONO-9517601 (VU6022856) and ONO-7927846 (VU6024391)” (Journal of Medicinal Chemistry, 2025).

Tests used:
[1] = Liver microsome intrinsic clearance, human; type: in vitro ADME; details: pH 7.4; human liver microsomes, predicted intrinsic clearance; read-out: LMS CLINT human
Method: were incubated in 100 mM potassium phosphate pH 7.4 buffer with 3 mM MgCl2 at 37 °C with constant shaking. After a 5 min preincubation, the reaction was initiated by the addition of NADPH (1 mM). At selected time intervals (0, 3, 7, 15, 25, and 45 min), aliquots were taken and subsequently placed into a 96-well plate containing cold acetonitrile with internal standard (50 ng/mL carbamazepine). Plates were then centrifuged at 3000 rcf (4 °C) for 10 min, and the supernatant was transferred to a separate 96-well plate and diluted 1:1 with water for LC/MS/MS analysis. The in vitro half-life ( 1/2, min, Eq. 1), intrinsic clearance (CLint, mL/min/kg, Eq. 2), and subsequent predicted hepatic clearance (CLhep, mL/min/kg, Eq. 3) was determined employing the […]
where k represents the slope from linear regression analysis of the natural log percent remaining of a test compound as a function of incubation time […]
(2) CLint = in vitroT x mg microsomes x gram liver x kg body wt ascale-up factors: of 20 (human) or 45 (rat) […]
where Qh (hepatic blood flow, mL/min/kg) is 21 (human) or 70 (rat).
LC/MS/MS Bioanalysis of Samples from Plasma Protein Binding and Intrinsic Clearance […]
Samples were analyzed on a Thermo Electron TSQ Quantum Ultra triple quad mass spectrometer (San Jose, CA) via electrospray ionization (ESI) with two Themo Electron Accella pumps (San Jose, CA), and a Leap Technologies CTC PAL autosampler (Carrboro, NC). Analytes were […]

[2] = Rat brain to plasma ratio (Kp, Kp,uu); type: in vivo; details: male, Sprague Dawley, brain and plasma, intravenous, 0.2 mg/kg; rat brain:plasma
Method: Determination of brain to plasma ratio:
All animal study procedures were approved by the Institutional Animal Care and Use Committee and were conducted in accordance with the National Institutes of Health regulations of animal care covered in Principles of Laboratory Animal Care (National Institutes of Health). All rats were fasted overnight prior to testing.
For determination of the brain over plasma ratio (Kp), compounds were formulated in 8% ethanol, 32% PEG400 and 60% DMSO (v/v/v) and administered as a single 0.2 mg/kg IV dose (1 mL/kg) to male, Sprague Dawley rats (n = 1) via injection into a surgically-implanted jugular vein catheter. At 15 min post dosing, blood sample was collected into chilled, K2EDTA anticoagulant-fortified tube and immediately placed on wet ice. The blood sample was then centrifuged (1700 rcf, 5 minutes, 4 °C) to obtain plasma sample. At the same post-administration time point, whole brain sample was obtained by rapid dissection, rinsed with PBS, and immediately frozen in individual tissue collection box (dry ice). All brain and plasma samples were stored at -80 °C until […]
Sample Analysis: Concentrations in plasma and brain homogenates were quantified by liquid chromatography tandem mass spectrometry (LC-MS/MS). Whole brains were homogenized in 3 mL of 70:30 IPA:water in a mini bead beater for 3 min, and centrifuged at 3,500 g for 5 min. 5 uL of the supernatant was diluted in 15 uL of blank plasma for quantification of the analytes. Plasma samples were centrifuged at 3,500 g for 5 min. A standard curve was generated by diluting the analytes DMSO stocks with blank plasma to obtain a final concentration of 10,000 ng/ml followed by a serial dilution down to 0.5 ng/ml. Quality controls were generated by a serial dilution of the 5,000 ng/ml standard curve solution in blank plasma to obtain 3 concentrations of 500, 50, and 5 ng/ml. 20 uL of brain diluted in plasma, plasma, blank plasma, standard curve and QC samples were loaded in a V-bottom 96-well plate. 120 uL of acetonitrile containing 0.05 uM carbamazepine (internal standard) was added to each well and the plate was centrifuged at 3,500 g for 5 min. 60 uL of the supernatant of each well (protein free) was transferred to a new 96-well plate containing 60 uL of water. The plates were sealed for analysis by LC-MS/MS.
Plasma and brain tissue samples originating from in vivo studies were analyzed by electrospray ionization using an AB Sciex Q-TRAP 5500 (Foster City, CA) that was coupled to a Shimadzu LC-20AD pump (Columbia, MD) and a Leap Technologies CTC PAL auto-sampler (Carrboro, NC). Analytes were separated by gradient elution using a C18 column (3 x 50 mm, 3 mm; Fortis Technologies Ltd, Cheshire, UK) that was thermostated at 40 °C. HPLC mobile phase A was 0.1% formic acid in water (pH unadjusted); mobile phase B was 0.1% formic acid in acetonitrile (pH […]
min, with an isocratic hold for 0.5 min, before transitioning to 10% B over 0.05 min. The column was re-equilibrated (1 min) before the next sample injection. The total run time was 2.55 min, and the HPLC flow rate was 0.5 ml/min. The source temperature was set at 500 °C, and mass spectral analyses were performed using a Turbo-Ion spray source in positive ionization mode (5.0-kV spray voltage) and using multiple-reaction monitoring of transitions specific for the analytes. All data were analyzed using AB Sciex Analyst 1.5.1 software.
Brain plasma concentration ratio (Kp) was calculated by dividing brain concentration by plasma concentration for each animal. Unbound brain to unbound plasma concentration ratio (Kp,uu) is calculated using the following formula: Kp,uu = (Brain ng/g x brain fu)/(plasma ng/ml x plasma fu).
In-vitro determination of blood-brain barrier penetration potential
Blood-brain barrier penetration was determined using MDR1-MDCK cell monolayers by Absorption Systems, following their protocol. In short, compounds were incubated at […] final concentration on one side of the cell monolayer for 2 hours. […]

[3] = Rat in vivo PK (plasma clearance) in SAR tables; details: read-out: Rat CLp
human TREK-1 (hTREK-1) = biological target: T1, human TREK-1 (hTREK-1) (Homo sapiens, UniProt O95069); assay: TREK-1 thallium flux assay (CHO-K1 cells stably expressing hTREK-1); type: cell-based; details: human TREK-1, thallium flux; read-out: h TREK-1 Tl+ IC50
T1 construct: expressed in transfected cells
T1 sequence (O95069 1-426): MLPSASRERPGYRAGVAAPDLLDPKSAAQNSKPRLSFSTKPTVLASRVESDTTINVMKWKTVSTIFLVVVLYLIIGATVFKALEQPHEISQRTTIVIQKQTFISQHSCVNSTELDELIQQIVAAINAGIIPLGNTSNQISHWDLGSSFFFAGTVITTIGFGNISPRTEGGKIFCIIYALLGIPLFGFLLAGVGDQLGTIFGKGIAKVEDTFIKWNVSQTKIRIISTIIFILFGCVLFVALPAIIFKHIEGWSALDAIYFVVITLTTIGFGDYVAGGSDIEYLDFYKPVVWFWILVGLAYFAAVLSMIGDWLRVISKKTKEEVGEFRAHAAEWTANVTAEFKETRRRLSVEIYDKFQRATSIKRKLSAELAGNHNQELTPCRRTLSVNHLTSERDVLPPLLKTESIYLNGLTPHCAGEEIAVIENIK
Method: Procedures for Biological Experiments
TREK-1 Thallium flux assay
CHO-K1 cells stably expressing hTREK-1 were cultured in T225 flask. The cells were loaded with FluxOR dye and plated in 384 well plate at the experiment day. Test compounds or control compound (tert-butyl (3-((4-(benzyloxy)-2-methylphenyl)carbamoyl)-4-chlorophenyl)carbamate) or 0.3% DMSO (vehicle control) were added directly to the cell plates and incubated for 10 min, and then treated with thallium stimulus buffer to initiate thallium flux.
To measure the efficacy and potency of test compounds, the change in fluorescence intensity (ΔRatio) and % inhibition were calculated using the following equations:
ΔRatio = (fluorescence intensity at 25 seconds after thallium addition)/(average of fluorescent intensity before thallium addition)
0.3% DMSO - ΔRatio of 10 μM control compound)}x100
% inhibition vs compound concentration were plotted in XLfit and calculated IC50.
CHO-K1 cells stably expressing human TREK-1 (hTREK-1) were cultured in T225 flask.
The cells were loaded with FluxOR dye and plated in 384 well plate at the experiment day. Test compounds or control compound (tert-butyl (3-((4-(benzyloxy)-2-methylphenyl)carbamoyl)-4-chlorophenyl)carbamate) or 0.3% DMSO (vehicle control) which were prepared on separate plates were added to the cell plates and incubated for 10 min, and then the cells with test compounds or […]
chlorophenyl)carbamate) or 0.3% DMSO (vehicle control) were treated with thallium stimulus buffer to initiate thallium flux. To measure the efficacy and potency of test compounds, the change in fluorescence intensity (ΔRatio) and % inhibition were calculated using the following equations: […]

[4] = Liver microsome intrinsic clearance, mouse; type: in vitro ADME; details: pH 7.4; mouse liver microsomes, predicted intrinsic clearance; read-out: LMS CLINT mouse
ChromatoLogD = type: physicochemical
mouse TREK-1 (mTREK-1) = biological target: T2, mouse TREK-1 (mTREK-1) (Mus musculus, UniProt P97438); assay: mTREK-1 manual patch clamp assay; type: cell-based; details: mouse TREK-1, manual patch clamp; read-out: TREK-1 IC50 (mouse, MPC)
T2 construct: expressed in transfected cells; host or cells: CHO-K1 (transient)
T2 sequence (P97438 1-426): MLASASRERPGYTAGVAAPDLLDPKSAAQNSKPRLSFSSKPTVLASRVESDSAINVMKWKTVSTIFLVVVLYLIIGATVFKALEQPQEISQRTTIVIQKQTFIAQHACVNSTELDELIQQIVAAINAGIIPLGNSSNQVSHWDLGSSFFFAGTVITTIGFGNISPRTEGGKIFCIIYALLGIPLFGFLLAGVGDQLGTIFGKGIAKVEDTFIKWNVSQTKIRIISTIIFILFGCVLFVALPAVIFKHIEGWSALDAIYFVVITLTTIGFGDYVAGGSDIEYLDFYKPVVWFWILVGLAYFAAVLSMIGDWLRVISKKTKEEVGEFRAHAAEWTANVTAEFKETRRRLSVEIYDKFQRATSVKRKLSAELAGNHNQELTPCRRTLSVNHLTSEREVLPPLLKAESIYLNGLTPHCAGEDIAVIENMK
Method: (§1) hTREK-1 and mTREK-1 patch clamp assay
(§2) CHO-K1 cells stably expressing hTREK-1 or CHO-K1 cells transiently expressing mouse TREK-1 (mTREK-1) were plated on glass coverslips, and voltage clamped in the whole-cell configuration of the patch clamp technique. Cells were voltage clamped at a holding potential of - 80 mV and the stepped to 0 mV for 500 msec. The voltage was subsequently ramped from -120mV to +80 mV over a 500 msec duration. This step-ramp protocol was repeated every 10 sec. The bathing solution contained the following: 135 mM NaCl, 5 mM KCl, 2 mM CaCl2, 1 mM MgCl2, 5 mM D-Glucose, 10 mM HEPES, 10 mM sucrose (adjusted to pH 7.4 with NaOH, 300 mosmol/kg H2O). The pipette solution contained the following: 135 mM KCl, 2 mM MgCl2, 1 mM EGTA, 10 mM HEPES, 2 mM Na2ATP (adjusted to pH 7.35 with KOH, 285 mosmol/kg H2O). Test […]
(§3) compounds were dissolved into the bathing solution. The effects of test compound on the currents were calculated at 0 mV using the following equations:
(§4) % inhibition = (1-post current/pre current) x 100
(§5) % inhibition vs compound concentrations were plotted in GraphPad Prism and calculated IC50. […]

hTREK-1 = biological target: T3, hTREK-1 (Homo sapiens, UniProt O95069); assay: hTREK-1 manual patch clamp assay; type: cell-based; details: human TREK-1, manual patch clamp; read-out: TREK-1 IC50 (human, MPC)
T3 construct: expressed in transfected cells
T3 sequence (O95069 1-426): T1 sequence (O95069 1-426)
Method: as §1, §2, §3, §4, §5

Row | CLint scaled at 1 µM [1] | Kp at 15 min [2] | clearance [3] | IC50 (human TREK-1 (hTREK-1)) | CLint scaled at 1 µM [4] | chromatographic logD (ChromatoLogD) | IC50 (mouse TREK-1 (mTREK-1)) | IC50 (hTREK-1) | SMILES
1 | 18 mL/min/kg | 0.84 | 328 mL/min/kg | 320 nM | 75 mL/min/kg | 4.03 |  |  | Cc1cc(C#Cc2ccccc2)cnc1NC(=O)c1cc(C(=O)N2CC(F)(F)C2)ccc1Cl [Compound 13a, 2-Chloro-5-(3,3-difluoroazetidine-1-carbonyl)-N-[3-methyl-5-(2-phenylethynyl)-2-pyridyl]benzamide]
2 | 36 mL/min/kg | 0.89 | 16.2 mL/min/kg | 130 nM | 107 mL/min/kg | 4.14 |  |  | Cc1cc(C#Cc2ccccc2)cnc1NC(=O)c1cc(OCC2COCCO2)ccc1Cl (stereo not shown) [Compound 13c, 2-Chloro-5-(1,4-dioxan-2-ylmethoxy)-N-[3-methyl-5-(2-phenylethynyl)-2-pyridyl]benzamide]
3 |  |  |  | 110 nM |  | 4.14 | 1200 nM | 11 nM | Cc1cc(C#Cc2ccccc2)cnc1NC(=O)c1cc(OC[C@H]2COCCO2)ccc1Cl [Compound 13d, (R)-5-((1,4-Dioxan-2-yl)methoxy)-2-chloro-N-(3-methyl-5-(phenylethynyl)pyridin-2-yl)benzamide]
